According to EP4786473A1, “PHARMACEUTICALLY ACCEPTABLE SALT AND CRYSTALLINE FORM OF QUINAZOLINE DERIVATIVE, AND USE THEREOF” (Jiangsu Hengrui Pharmaceuticals Co., Ltd., priority 2023, dated 2025):
Where two headings read alike, the source gives them in different places.

Key:
[1] = DVS (dynamic vapor sorption) hygroscopicity test; assay type: physicochemical
Protocol: DVS refers to dynamic vapor sorption and is determined using SMS DVS Advantage at 25°C, with the humidity change of 50%-95%-0%-95%-50% and the stepping of 10% (5% for the last step) (the specific humidity range is determined in accordance with the corresponding plot, and the methods listed herein are those most commonly used), and the standard for determination is as follow: dm/dt is not more than 0.002%.
100 mg of the compound of formula 1 was dissolved in 1 mL of acetone to give a clear solution. An aqueous p-toluenesulfonic acid solution (97.10 µL, 2 M) was added to the resulting solution. The mixture was stirred and centrifuged. The resulting solid was collected and dried under vacuum to obtain a product. […] The p-toluenesulfonate ion content of the product was detected to be 22.63% by ion chromatography. […] Furthermore, the crystal form was re-detected and found to be unchanged following the DVS test.

[2] = Stability study under influencing factors; assay type: physicochemical
From the text: The sampling and investigation period was 1 month.

[3] = Long-term/accelerated stability; assay type: physicochemical
[4] = tested on: HER2 A775_G776insYVMA mutant Ba/F3 cells; test: Ba/F3 cell proliferation assay (HER2 exon 20 YVMA insertion mutant); assay type: cell-based; conditions: 72 hours, Celltiter-Glo; for GI50: read-out: HER2 A775_G776 ins YVMA/BaF 3 GI50
Protocol: (§1) EGFR wild-type Ba/F3 cells in the logarithmic growth phase (Cobioer, Cat. No.: CBP73110) were seeded into 96-well plates at a density of 2.5 × 10^3 cells/100 uL of growth culture medium. HER2 wild-type Ba/F3 cells (Cobioer, Cat. No.: CBP73110) or HER2 A775_G776insYVMA mutant Ba/F3 cells (Cobioer, Cat. No.: CBP73184) in the logarithmic growth phase were seeded into 96-well plates at a density of 5 × 10^3 cells/100 uL of growth culture medium. The plates were incubated overnight in a 37°C cell incubator. The following day, the compound, which had been serially diluted 3-fold in growth culture medium, was added at 100 uL/well. All treatments were performed in triplicate. The plates were incubated in the 37°C cell incubator for another 72 hours. Celltiter-Glo Luminescent Cell Viability Assay was performed.
(§2) The cell proliferation rate was calculated for each well according to the following formula: Proliferation (%) = (G3 - G0 mean value of test compound wells)/(G3 mean value - GO mean value of DMSO control wells)*100. Based on the proliferation rate corresponding to each gradient concentration well and concentration thereof, the gradient curve of cell proliferation was fitted using Prism Graphpad software, and the GI50 of the compound was calculated (GI50 is defined as the compound concentration required to achieve a 50% inhibition rate of cell proliferation).

[5] = tested on: EGFR wild-type Ba/F3 cells; test: Ba/F3 cell proliferation assay (EGFR wild-type); assay type: cell-based; conditions: 72 hours, Celltiter-Glo
Protocol: as §1, §2

[6] = tested on: HER2 wild-type Ba/F3 cells; test: Ba/F3 cell proliferation assay (HER2 wild-type); assay type: cell-based; conditions: 72 hours, Celltiter-Glo
Protocol: as §1, §2

[7] = 75% RH, 1 month, open container
[8] = 75% RH, 13 days, open container
[9] = 92.5% RH, 1 month, open container
[10] = 92.5% RH, 13 days, open container
[11] = 4500 Lux, 1 month, open container
[12] = 4500 Lux, 7 days, open container
[13] = 4500 Lux, 13 days, open container

C=CC(=O)N1[C@@H]2CC[C@H]1C[C@@H](Oc1ccc3ncnc(Nc4ccc(Oc5ccn6ncnc6c5)c(C)c4F)c3c1)C2 [Crystal form I of p-toluenesulfonate, 1-(endo-3-((4-((4-([1,2,4]triazolo[1,5-a]pyridin-7-yloxy)-2-fluoro-3-methylphenyl)amino)quinazolin-6-yl)oxy)-8-azabicyclo[3.2.1]oct-8-yl)prop-2-en-1-one]
weight gain after moisture absorption ([1]; accelerated test conditions (70% RH)): about 1.57%
crystal form re-detected following the DVS test ([1]; after DVS test): unchanged
weight gain after moisture absorption ([1]; extreme conditions (90% RH)): about 2.21%
weight gain after moisture absorption ([1]; normal storage conditions (25°C, 60% RH)): about 1.18%
Colour and trait ([2]; 40°C, 1 month, open container): White powder
Purity% ([2]; 40°C, 1 month, open container): 95.2%
Salt form ([2]; 40°C, 1 month, open container): Unchanged
Colour and trait ([2]; 40°C, 7 days, open container): White powder
Purity% ([2]; 40°C, 7 days, open container): 98.7%
Salt form ([2]; 40°C, 7 days, open container): Unchanged
Colour and trait ([2]; 40°C, 13 days, open container): White powder
Purity% ([2]; 40°C, 13 days, open container): 97.6%
Salt form ([2]; 40°C, 13 days, open container): Unchanged
Colour and trait ([2]; 60°C, 1 month, open container): White powder
Purity% ([2]; 60°C, 1 month, open container): 94.9%
Salt form ([2]; 60°C, 1 month, open container): Unchanged
Colour and trait ([2]; 60°C, 7 days, open container): White powder
Purity% ([2]; 60°C, 7 days, open container): 98.7%
Salt form ([2]; 60°C, 7 days, open container): Unchanged
Colour and trait ([2]; 60°C, 13 days, open container): White powder
Purity% ([2]; 60°C, 13 days, open container): 97.8%
Salt form ([2]; 60°C, 13 days, open container): Unchanged
Colour and trait [2, 7]: White powder
Purity% [2, 7]: 99.7%
Salt form [2, 7]: Unchanged
Colour and trait [2, 8]: White powder
Purity% [2, 8]: 99.7%
Salt form [2, 8]: Unchanged
Colour and trait [2, 9]: White powder
Purity% [2, 9]: 99.7%
Salt form [2, 9]: Unchanged
Colour and trait [2, 10]: White powder
Purity% [2, 10]: 99.7%
Salt form [2, 10]: Unchanged
Colour and trait [2, 11]: White powder
Purity% [2, 11]: 99.1%
Salt form [2, 11]: Unchanged
Colour and trait [2, 12]: White powder
Purity% [2, 12]: 99.6%
Salt form [2, 12]: Unchanged
Colour and trait [2, 13]: White powder
Purity% [2, 13]: 99.5%
Salt form [2, 13]: Unchanged
Colour and trait ([2]; Initial, 0 day): White powder
Purity% ([2]; Initial, 0 day): 99.7%
Salt form ([2]; Initial, 0 day): Crystal form I of p-toluenesulfonate
Colour and trait ([3]; 25°C/60% RH, 1 month): White powder
Purity% ([3]; 25°C/60% RH, 1 month): 99.7%
Salt form ([3]; 25°C/60% RH, 1 month): Unchanged
Colour and trait ([3]; 25°C/60% RH, 2 months): White powder
Purity% ([3]; 25°C/60% RH, 2 months): 99.7%
Salt form ([3]; 25°C/60% RH, 2 months): Unchanged
Colour and trait ([3]; 25°C/60% RH, 3 months): White powder
Purity% ([3]; 25°C/60% RH, 3 months): 99.7%
Salt form ([3]; 25°C/60% RH, 3 months): Unchanged
Colour and trait ([3]; 25°C/60% RH, 6 months): White powder
Purity% ([3]; 25°C/60% RH, 6 months): 99.7%
Salt form ([3]; 25°C/60% RH, 6 months): Unchanged
Colour and trait ([3]; 25°C/60% RH, 14 days): White powder
Purity% ([3]; 25°C/60% RH, 14 days): 99.7%
Salt form ([3]; 25°C/60% RH, 14 days): Unchanged
Colour and trait ([3]; 40°C/75% RH, 1 month): White powder
Purity% ([3]; 40°C/75% RH, 1 month): 99.7%
Salt form ([3]; 40°C/75% RH, 1 month): Unchanged
Colour and trait ([3]; 40°C/75% RH, 2 months): White powder
Purity% ([3]; 40°C/75% RH, 2 months): 99.7%
Salt form ([3]; 40°C/75% RH, 2 months): Unchanged
Colour and trait ([3]; 40°C/75% RH, 3 months): White powder
Purity% ([3]; 40°C/75% RH, 3 months): 99.7%
Salt form ([3]; 40°C/75% RH, 3 months): Unchanged
Colour and trait ([3]; 40°C/75% RH, 6 months): White powder
Purity% ([3]; 40°C/75% RH, 6 months): 99.7%
Salt form ([3]; 40°C/75% RH, 6 months): Unchanged
Colour and trait ([3]; 40°C/75% RH, 14 days): White powder
Purity% ([3]; 40°C/75% RH, 14 days): 99.6%
Salt form ([3]; 40°C/75% RH, 14 days): Unchanged
Colour and trait ([3]; Initial, 0 day): White powder
Purity% ([3]; Initial, 0 day): 99.7%
Salt form ([3]; Initial, 0 day): Crystal form I of p-toluenesulfonate

Cc1cc(Nc2ncnc3ccc(NC4=NC(C)(C)CO4)cc23)ccc1Oc1ccn2ncnc2c1 [Tucatinib, reference compound]
HER2 A775_G77 6 ins YVMA/Ba F3 Imax % [4]: 100%
GI50 ([4]; Mus musculus, BaF3): 309 nM

C=CC(=O)N1[C@@H]2CC[C@H]1C[C@@H](Oc1ccc3ncnc(Nc4ccc(Oc5ccn6ncnc6c5)c(C)c4F)c3c1)C2 [Example 1, 1-(endo-3-((4-((4-([1,2,4]triazolo[1,5-a]pyridin-7-yloxy)-2-fluoro-3-methylphenyl)amino)quinazolin-6-yl)oxy)-8-azabicyclo[3.2.1]oct-8-yl)prop-2-en-1-one]
EGFR WT/BaF 3 Imax % [5]: 100%
GI50 ([5]; read-out: EGFR WT/BaF3 GI50): 2840 nM
HER2 WT/BaF 3 Imax % [6]: 100%
GI50 ([6]; read-out: HER2 WT/Ba F3 GI50): 9.3 nM
HER2 A775_G77 6 ins YVMA/Ba F3 Imax % [4]: 100%
GI50 [4]: 10.3 nM
